These compounds were tested against PI3Kδ (Homo sapiens (Human), UniProt O00329) (assay: PI3Kδ Alphascreen assay).
PI3Kδ, sequence (O00329 whole entry): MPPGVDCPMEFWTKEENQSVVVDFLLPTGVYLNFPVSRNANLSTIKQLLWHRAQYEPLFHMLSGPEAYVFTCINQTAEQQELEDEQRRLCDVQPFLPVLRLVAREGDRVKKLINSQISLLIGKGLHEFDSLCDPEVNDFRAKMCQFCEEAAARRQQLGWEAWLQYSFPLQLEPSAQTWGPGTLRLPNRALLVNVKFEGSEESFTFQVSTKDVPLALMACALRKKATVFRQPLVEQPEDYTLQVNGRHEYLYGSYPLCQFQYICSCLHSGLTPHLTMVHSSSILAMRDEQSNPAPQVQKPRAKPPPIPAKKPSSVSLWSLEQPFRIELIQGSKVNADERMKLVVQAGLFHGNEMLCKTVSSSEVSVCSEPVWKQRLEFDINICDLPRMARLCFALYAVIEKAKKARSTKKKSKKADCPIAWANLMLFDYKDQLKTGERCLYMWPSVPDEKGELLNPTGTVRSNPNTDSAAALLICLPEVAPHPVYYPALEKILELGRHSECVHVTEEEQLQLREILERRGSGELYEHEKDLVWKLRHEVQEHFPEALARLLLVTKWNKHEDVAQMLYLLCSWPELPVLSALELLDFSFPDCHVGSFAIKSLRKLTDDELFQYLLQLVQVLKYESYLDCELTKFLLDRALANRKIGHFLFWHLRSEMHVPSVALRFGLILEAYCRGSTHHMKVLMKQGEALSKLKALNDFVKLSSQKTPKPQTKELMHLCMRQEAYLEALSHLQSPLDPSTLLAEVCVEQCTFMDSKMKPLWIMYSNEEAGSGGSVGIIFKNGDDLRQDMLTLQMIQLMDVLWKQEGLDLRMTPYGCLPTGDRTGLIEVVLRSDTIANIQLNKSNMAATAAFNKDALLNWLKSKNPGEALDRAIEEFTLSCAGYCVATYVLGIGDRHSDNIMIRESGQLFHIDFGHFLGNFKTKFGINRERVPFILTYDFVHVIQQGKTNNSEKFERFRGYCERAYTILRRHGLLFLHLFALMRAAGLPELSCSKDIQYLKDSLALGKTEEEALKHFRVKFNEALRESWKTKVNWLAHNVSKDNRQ
PI3Kδ, sequence (P27986 whole entry partner): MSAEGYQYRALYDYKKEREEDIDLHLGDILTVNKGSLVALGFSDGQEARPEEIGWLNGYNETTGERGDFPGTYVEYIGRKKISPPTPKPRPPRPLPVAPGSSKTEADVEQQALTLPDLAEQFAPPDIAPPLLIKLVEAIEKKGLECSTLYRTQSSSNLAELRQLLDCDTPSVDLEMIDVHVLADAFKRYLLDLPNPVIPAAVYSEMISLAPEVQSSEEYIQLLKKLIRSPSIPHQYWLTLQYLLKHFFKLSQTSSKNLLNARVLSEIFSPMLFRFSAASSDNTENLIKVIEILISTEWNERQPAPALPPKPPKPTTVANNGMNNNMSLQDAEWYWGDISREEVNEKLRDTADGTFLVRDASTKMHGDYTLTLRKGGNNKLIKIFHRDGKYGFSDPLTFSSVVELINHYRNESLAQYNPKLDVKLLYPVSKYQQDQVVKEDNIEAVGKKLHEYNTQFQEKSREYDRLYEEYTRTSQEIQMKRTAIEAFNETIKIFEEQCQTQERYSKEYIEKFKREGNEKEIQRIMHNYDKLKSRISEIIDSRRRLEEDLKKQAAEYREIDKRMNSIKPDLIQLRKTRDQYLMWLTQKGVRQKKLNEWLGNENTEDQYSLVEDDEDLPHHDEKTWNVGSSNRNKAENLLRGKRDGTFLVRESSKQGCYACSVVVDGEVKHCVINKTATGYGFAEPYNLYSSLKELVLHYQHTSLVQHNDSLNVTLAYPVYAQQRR
Type: biochemical
Description: Full length p110 subunits of PI3k α, β and δ, N-terminally labeled with polyHis tag, were coexpressed with p85 with Baculo virus expression vectors in sf9 insect cells. P110/p85 heterodimers were purified by sequential Ni-NTA, Q-HP, Superdex-100 chromatography. Purified α, β and δ isozymes were stored at −20° C. in 20 mM Tris, pH 8, 0.2M NaCl, 50% glycerol, 5 mM DTT, 2 mM Na cholate. […] The y isozyme was purified by sequential Ni-NTA, Superdex-200, Q-HP chromatography. The γ isozyme was stored frozen at −80° C. in NaH2PO4, pH 8, 0.2M NaCl, 1% ethylene glycol, 2 mM β-mercaptoethanol.
A PI3K Alphascreen® assay (PerkinElmer, Waltham, Mass.) was used to measure the activity of a panel of four phosphoinositide 3-kinases: PI3Kα, PI3Kβ, PI3Kγ, and PI3Kδ. Enzyme reaction buffer was prepared using sterile water (Baxter, Deerfield, Ill.) and 50 mM Tris HCl pH 7, 14 mM MgCl2, 2 mM sodium cholate, and 100 mM NaCl. 2 mM DTT was added fresh the day of the experiment. The Alphascreen buffer was made using sterile water and 10 mM Tris HCl pH 7.5, 150 mM NaCl, 0.10% Tween 20, and 30 mM EDTA. 1 mM DTT was added fresh the day of the experiment. Compound source plates used for this assay were 384-well Greiner clear polypropylene plates containing test compounds at 5 mM and diluted 1:2 over 22 concentrations. Columns 23 and 24 contained only DMSO as these wells comprised the positive and negative controls, respectively. Source plates were replicated by transferring 0.5 uL per well into 384-well Optiplates (PerkinElmer, Waltham, Mass.).
Each PI3K isoform was diluted in enzyme reaction buffer to 2× working stocks. […] PI(4,5)P2 (Echelon Biosciences, Salt Lake City, Utah) was diluted to 10 μM and ATP was diluted to 20 μM. This 2× stock was used in the assays for PI3Kα and PI3Kβ. For assay of PI3Kγ and PI3Kδ, PI(4,5)P2 was diluted to 10 μM and ATP was diluted to 8 μM to prepare a similar 2× working stock. Alphascreen reaction solutions were made using beads from the anti-GST Alphascreen kit (PerkinElmer, Waltham, Mass.). Two 4× working stocks of the Alphascreen reagents were made in Alphascreen reaction buffer. In one stock, biotinylated-IP4 (Echelon Biosciences, Salt Lake City, Utah) was diluted to 40 nM and streptavadin-donor beads were diluted to 80 μg/mL. In the second stock, PIP3-binding protein (Echelon Biosciences, Salt Lake City, Utah) was diluted to 40 nM and anti-GST-acceptor beads were diluted to 80 μg/mL.
10 μL/well of the appropriate substrate 2× stock (containing 20 μM ATP for the PI3Kα and β assays and containing 8 μM ATP for the PI3Kγ and δ assays) was then added to Columns 1-24 of all plates. Plates were then incubated at room temperature for 20 minutes. In the dark, 10 μL/well of the donor bead solution was added to columns 1-24 of the plates to quench the enzyme reaction. The plates were incubated at room temperature for 30 minutes. Still in the dark, 10 μL/well of the acceptor bead solution was added to columns 1-24 of the plates. The plates were then incubated in the dark for 1.5 hours. The plates were read on an Envision multimode Plate Reader (PerkinElmer, Waltham, Mass.) using a 680 nm excitation filter and a 520-620 nm emission filter.
With Cc1ccccc1-c1c(CSc2ncnc3[nH]cnc23)nc2cccc(C)n2c1=O [6-methyl-3-(2-methylphenyl)-2-((9H-purin-6-yl-sulfanyl)methyl)-4H-pyrido[1,2-a]pyrimidin-4-one] the Ki was 9710 nM.
Cc1cccc2nc(Cn3nc(I)c4c(N)ncnc43)c(-c3cccc(F)c3)c(=O)n12 [2-((4-amino-3-iodo-1H-pyrazolo[3,4-d]pyrimidin-1-yl)methyl)-3-(3-fluorophenyl)-6-methyl-4H-pyrido[1,2-a]pyrimidin-4-one] gave a Ki of 84.9 nM.
In the case of C[C@@H](Nc1ncnc(N)c1C#N)c1nc2ccccn2c(=O)c1-c1cc(F)cc(F)c1 [4-amino-6-(((1R)-1-(3-(3,5-difluorophenyl)-4-oxo-4H-pyrido[1,2-a]pyrimidin-2-yl)ethyl)amino)-5-pyrimidinecarbonitrile], the Ki is reported as 320000 nM.
Compound Cc1ccccc1-c1c(Cn2cnc3c(N)ncnc32)nc2cccc(C)n2c1=O [2-((6-amino-9H-purin-9-yl)methyl)-6-methyl-3-(2-methylphenyl)-4H-pyrido[1,2-a]pyrimidin-4-one] has a Ki of 6280 nM.
In the case of Cc1cccc2nc([C@H](C)Nc3ncnc(N)c3C#N)c(-c3ccccn3)c(=O)n12 [4-amino-6-(((1S)-1-(6-methyl-4-oxo-3-(2-pyridinyl)-4H-pyrido[1,2-a]pyrimidin-2-yl)ethyl)amino)-5-pyrimidinecarbonitrile], the Ki is reported as 21.4 nM.
With Cc1cccc2nc(C(C)Nc3ncnc(N)c3C#N)c(-c3ccccn3)c(=O)n12 (racemic) [4-amino-6-((1-(6-methyl-4-oxo-3-(2-pyridinyl)-4H-pyrido-[1,2-a]pyrimidin-2-yl)ethyl)amino)-5-pyrimidinecarbonitrile] the Ki was 10.8 nM.
With CC(Nc1ncnc(N)c1C#N)c1nc2ccccn2c(=O)c1-c1cccc(F)c1 (racemic) [4-amino-6-((1-(3-(3-fluorophenyl)-4-oxo-4H-pyrido[1,2-a]pyrimidin-2-yl)ethyl)amino)-5-pyrimidinecarbonitrile] the Ki was 57.1 nM.
For CC(Nc1ncnc(N)c1C#N)c1c(-c2cc(F)cc(F)c2)c(=O)c2cc(F)ccc2n1C (centres unmarked) [4-amino-6-((1-(3-(3,5-difluorophenyl)-6-fluoro-1-methyl-4-oxo-1,4-dihydro-2-quinolinyl)ethyl)amino)-5-pyrimidinecarbonitrile], the Ki was 33 nM.
C[C@@H](Nc1ncnc(N)c1C#N)c1nc2ccccn2c(=O)c1-c1cccc(F)c1 [4-Amino-6-(((1R)-1-(3-(3-fluorophenyl)-4-oxo-4H-pyrido[1,2-a]pyrimidin-2-yl)ethyl)amino)-5-pyrimidinecarbonitrile] was tested, and the Ki was 1880 nM.
With Cc1cccc2nc([C@@H](C)Nc3ncnc4[nH]cnc34)c(-c3cccc(F)c3)c(=O)n12 [3-(3-fluorophenyl)-6-methyl-2-((1R)-1-(9H-purin-6-ylamino)ethyl)-4H-pyrido[1,2-a]pyrimidin-4-one] the Ki was 802 nM.
In the case of CC(Nc1ncnc(N)c1C#N)c1nc2ccccn2c(=O)c1-c1cc(F)cc(F)c1 (racemic) [4-Amino-6-((1-(3-(3,5-difluorophenyl)-4-oxo-4H-pyrido[1,2-a]pyrimidin-2-yl)ethyl)amino)-5-pyrimidinecarbonitrile], the Ki is reported as 89 nM.
With C[C@H](Nc1ncnc(N)c1C#N)c1nc2ccccn2c(=O)c1-c1ccccn1 [4-amino-6-(((1S)-1-(4-oxo-3-(2-pyridinyl)-4H-pyrido[1,2-a]pyrimidin-2-yl)ethyl)amino)-5-pyrimidinecarbonitrile] the Ki was 42.4 nM.
C[C@H](Nc1ncnc(N)c1C#N)c1nc2ccccn2c(=O)c1-c1cc(F)cc(F)c1 [4-amino-6-(((1S)-1-(3-(3,5-difluorophenyl)-4-oxo-4H-pyrido[1,2-a]pyrimidin-2-yl)ethyl)amino)-5-pyrimidinecarbonitrile] was tested, and the Ki was 21.6 nM.
With C[C@H](Nc1ncnc(N)c1C#N)c1nc2ccccn2c(=O)c1-c1ccccc1S(C)(=O)=O [4-amino-6-(((1S)-1-(3-(2-(methylsulfonyl)phenyl)-4-oxo-4H-pyrido[1,2-a]pyrimidin-2-yl)ethyl)amino)-5-pyrimidinecarbonitrile] the Ki was 53.7 nM.
With Cc1cccc2nc(C(C)Nc3ncnc4[nH]cnc34)c(-c3cccc(F)c3)c(=O)n12 (racemic) [3-(3-fluorophenyl)-6-methyl-2-(1-(9H-purin-6-ylamino)ethyl)-4H-pyrido[1,2-a]pyrimidin-4-one] the Ki was 27.7 nM.
Cc1cccc2nc(C(C)Nc3ncnc(N)c3C#N)c(-c3ccccc3)c(=O)n12 (racemic) [4-amino-6-((1-(6-methyl-4-oxo-3-phenyl-4H-pyrido[1,2-a]pyrimidin-2-yl)ethyl)amino)-5-pyrimidinecarbonitrile] was tested, and the Ki was 12.6 nM.
Work on Cc1ccnc(-c2c([C@H](C)Nc3ncnc(N)c3C#N)nc3ccccn3c2=O)c1 [4-amino-6-(((1S)-1-(3-(4-methyl-2-pyridinyl)-4-oxo-4H-pyrido[1,2-a]pyrimidin-2-yl)ethyl)amino)-5-pyrimidinecarbonitrile] yielded a Ki of 230 nM.
C[C@@H](Nc1ncnc(N)c1C#N)c1nc2ccccn2c(=O)c1-c1ccccc1S(C)(=O)=O [4-amino-6-(((1R)-1-(3-(2-(methylsulfonyl)phenyl)-4-oxo-4H-pyrido[1,2-a]pyrimidin-2-yl)ethyl)amino)-5-pyrimidinecarbonitrile] was tested, and the Ki was 24600 nM.
In the case of C[C@@H](Nc1ncnc(N)c1C#N)c1nc2ccccn2c(=O)c1-c1ccccn1 [4-amino-6-(((1R)-1-(4-oxo-3-(2-pyridinyl)-4H-pyrido[1,2-a]pyrimidin-2-yl)ethyl)amino)-5-pyrimidinecarbonitrile], the Ki is reported as 585 nM.
For Cc1cccc2nc([C@H](C)Nc3ncnc4[nH]cnc34)c(-c3cccc(F)c3)c(=O)n12 [3-(3-fluorophenyl)-6-methyl-2-((1S)-1-(9H-purin-6-ylamino)ethyl)-4H-pyrido[1,2-a]pyrimidin-4-one], the Ki was 23.1 nM.
In the case of Cc1cccc2nc(C(C)Nc3ncnc(N)c3C#N)c(-c3ccccc3)c(=O)n12 (single isomer, unassigned), the Ki is reported as 1180 nM.
Work on CC(Nc1ncnc(N)c1C#N)c1nc2ccccn2c(=O)c1-c1ccccc1S(C)(=O)=O (racemic) [4-amino-6-((1-(3-(2-(methylsulfonyl)phenyl)-4-oxo-4H-pyrido[1,2-a]pyrimidin-2-yl)ethyl)amino)-5-pyrimidinecarbonitrile] yielded a Ki of 52.8 nM.
Work on CC(Nc1ncnc(N)c1C#N)c1nc2ccccn2c(=O)c1-c1ccccn1 (racemic) [4-amino-6-((1-(4-oxo-3-(2-pyridinyl)-4H-pyrido[1,2-a]pyrimidin-2-yl)ethyl)amino)-5-pyrimidinecarbonitrile] yielded a Ki of 104 nM.
Cc1cccc2nc(CNc3ncnc4[nH]cnc34)c(-c3cccc(F)c3)c(=O)n12 [3-(3-Fluorophenyl)-6-methyl-2-((9H-purin-6-ylamino)methyl)-4H-pyrido[1,2-a]pyrimidin-4-one] gave a Ki of 711 nM.
Cc1cccc2nc([C@H](C)Nc3ncnc(N)c3C#N)c(-c3ccccc3)c(=O)n12 [4-amino-6-(((1S)-1-(6-methyl-4-oxo-3-phenyl-4H-pyrido[1,2-a]pyrimidin-2-yl)ethyl)amino)-5-pyrimidinecarbonitrile] showed a Ki of 5 nM.
C[C@H](Nc1ncnc(N)c1C#N)c1nc2ccccn2c(=O)c1-c1cccc(F)c1 [4-amino-6-(((1S)-1-(3-(3-fluorophenyl)-4-oxo-4H-pyrido[1,2-a]pyrimidin-2-yl)ethyl)amino)-5-pyrimidinecarbonitrile] showed a Ki of 15.7 nM.
In the case of Cc1ccnc(-c2c([C@@H](C)Nc3ncnc(N)c3C#N)nc3ccccn3c2=O)c1 [4-amino-6-(((1R)-1-(3-(4-methyl-2-pyridinyl)-4-oxo-4H-pyrido[1,2-a]pyrimidin-2-yl)ethyl)amino)-5-pyrimidinecarbonitrile], the Ki is reported as 9270 nM.
Cc1ccnc(-c2c(C(C)Nc3ncnc(N)c3C#N)nc3ccccn3c2=O)c1 (racemic) [4-amino-6-((1-(3-(4-methyl-2-pyridinyl)-4-oxo-4H-pyrido[1,2-a]pyrimidin-2-yl)ethyl)amino)-5-pyrimidinecarbonitrile] showed a Ki of 471 nM.
Compound Cc1cccc2nc([C@@H](C)Nc3ncnc(N)c3C#N)c(-c3ccccn3)c(=O)n12 [4-amino-6-(((1R)-1-(6-methyl-4-oxo-3-(2-pyridinyl)-4H-pyrido[1,2-a]pyrimidin-2-yl)ethyl)amino)-5-pyrimidine-carbonitrile] has a Ki of 10700 nM.

From patent US8754089B2, “Heterocyclic compounds and their uses” (Amgen Inc., priority 2009, dated 2014)
